From patent US9315494B2, “Alkyl-amide-substituted pyridyl compounds useful as modulators of IL-12, IL-23 and/or IFNα responses” (Bristol-Myers Squibb Company, priority 2012, dated 2016) come the findings set out here.

Structures are written as SMILES. Like-named read-outs stand apart in the source and are kept apart here.

Assay [1] concerns IL-23-stimulated STAT-dependent luciferase reporter in Kit225 T cells. In words: Kit225 T cell assay, IL-23 stimulated STAT-dependent luciferase reporter. The assay is classed as cell-based, human. To be noted: Kit225 T cells, 20 ng/mL human recombinant IL-23, 5-6 hours, luciferase; read-out: IL23 (Kit225 T Cell Inhibition Data). The essentials:
(§1)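 Stimulus was either 200 U/mL human recombinant IFNα or 20 ng/mL IL-23, applied for 5-6 h to reporter-bearing Kit225 T cells grown in RPMI/10% FBS. Luciferase expression then quantified by luminescent assay.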

For assay [2], the system named is IFNα-stimulated STAT-dependent luciferase reporter in Kit225 T cells. In words: Kit225 T cell assay, IFNα stimulated STAT-dependent luciferase reporter. The assay is classed as cell-based, human. The essentials:
as §1
(In general: In a reporter assay the amount or activity of a reporter protein is the signal.)

For assay [3], the target named is T1, recombinantly expressed His-tagged protein corresponding to amino acids 575-869 of human Tyk2 (Homo sapiens, UniProt P29597).
T1 construct: corresponding to amino acids 575-869 of human Tyk2; made in house
T1 sequence (P29597 575-869): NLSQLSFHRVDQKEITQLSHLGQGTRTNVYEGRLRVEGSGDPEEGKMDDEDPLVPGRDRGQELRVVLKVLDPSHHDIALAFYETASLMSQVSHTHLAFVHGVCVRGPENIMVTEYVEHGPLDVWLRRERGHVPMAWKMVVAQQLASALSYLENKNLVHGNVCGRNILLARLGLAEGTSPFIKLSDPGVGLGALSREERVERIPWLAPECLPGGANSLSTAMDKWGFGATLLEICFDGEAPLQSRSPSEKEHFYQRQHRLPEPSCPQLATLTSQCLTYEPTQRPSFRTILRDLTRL
Nature of the assay: Probe displacement assay (scintillation proximity, [3H] probe). The assay is classed as binding. To be noted: 2.5 nM Tyk2 (575-869), 40 nM radiolabeled probe, 30 minutes at room temperature. As to the method: The probe displacement assay is conducted as follows: In a […], test compounds along with recombinantly expressed His-tagged protein corresponding to amino acids 575-869 of human Tyk2 (sequence shown below) at 2.5 nM, 40 nM ((R)-N-(1-(3-(8-methyl-5-(methylamino)-8H-imidazo[4,5-d]thiazolo[5,4-b]pyridin-2-yl)phenyl)ethyl)-2-([^3H]methylsulfonyl)benzamide) (preparation described below) and 80 μg/mL Copper His-Tag scintillation proximity assay beads (Perkin Elmer, Catalog #RPNQ0095) in 50 mM HEPES, pH 7.5, containing 100 μg/mL bovine serum albumin and 5% DMSO were incubated for 30 minutes at room temperature. The amount of radiolabeled probe (preparation described below) bound to Tyk2 was then quantified by scintillation counting, and the inhibition by the test compound calculated by comparison to wells either with no inhibitor (0% inhibition) or without Tyk2 (100% inhibition).
Protein Sequence of recombinant Hig-tagged Tyk2 (575-869):
The preparation of radiolabeled probe, (R)-N-(1-(3-(8-methyl-5-(methylamino)-8H-imidazo[4,5-d]thiazolo[5,4-b]pyridin-2-yl)phenyl)ethyl)-2-([^3H]methylsulfonyl)benzamide, was performed as described below: […]
(In general: In a scintillation proximity assay essentially only radioactivity close to the scintillant gives light.)

[4] abbreviates: Kit225 T cells, 200 U/mL human recombinant IFNα, 5-6 hours, luciferase, read-out: IFNα (Kit225 T Cell Inhibition Data).

Consider `CNC(=O)c1cnc(Nc2ccc3ccccc3n2)cc1Nc1ccccc1S(C)(=O)=O` [Example 2], for which the IC50 in assay [1] amounted to 57.4 nM; in assay [2] (setting [4]), 30 nM. Also, in assay [3], the EC50 – broadly, the concentration that produces a half-maximal response – amounted to 13.2 nM.

In the case of `CNC(=O)c1cnc(Nc2cncc(C)n2)cc1Nc1ccccc1S(C)(=O)=O` [Example 42], the results for the IC50 in assay [1] and in assay [2] (setting [4]) were 260 nM and 140 nM, respectively. Further, in assay [3], the concentration giving a half-maximal response (EC50) turned out to be 8.2 nM.

As for `CNC(=O)c1cnc(Nc2cc(C#N)ccn2)cc1Nc1ccc(S(C)(=O)=O)cc1OC` [Example 43], the IC50 in assay [1] worked out at 173 nM; in assay [2] (setting [4]), 870 nM. Moreover, the EC50 in assay [3] came to 68.7 nM.

Regarding `CNC(=O)c1cnc(Nc2ccc(S(C)(=O)=O)cn2)cc1Nc1ccccc1S(C)(=O)=O` [Example 61], the IC50 in assay [1] was 3530 nM; in assay [2] (setting [4]), 1030 nM. For the same compound, the EC50 in assay [3] came to 16.4 nM.

On to `CNC(=O)c1cnc(Nc2ccc3ccccc3n2)cc1NC1CCCC1` [Example 283], for which the IC50 in assay [2] (Homo sapiens, KIT225, read-out: IFNα (Kit225 T Cell Inhibition Data)) turned out to be 12500 nM. The EC50 in assay [3] came out at 633 nM.

As to `CCc1cc(C#N)ccc1Nc1cc(Nc2cc(C)nc(C)n2)ncc1C(=O)NC` [Example 401], the results for the IC50 in assay [1] and in assay [2] (setting [4]) were 480 nM and 440 nM, respectively.

Consider `CCc1ncccc1Nc1cc(Nc2cc(C)nc(C)n2)ncc1C(=O)NC` [Example 402], for which the IC50 in assay [1] was determined as 250 nM; in assay [2] (setting [4]) it was 330 nM.

As for `CNC(=O)c1cnc(Nc2cc(NC)nc(C)n2)cc1Nc1cccnc1OC` [Example 403], the IC50 turned out to be 240 nM in assay [1] and 290 nM in assay [2] (setting [4]).

`[2H]C([2H])([2H])NC(=O)c1cnc(Nc2cc(C)nc(C)n2)cc1Nc1cccc(-c2csc(C)n2)c1OC` [Example 404, 6-((2,6-dimethylpyrimidin-4-yl)amino)-4-((2-methoxy-3-(2-methylthiazol-4-yl)phenyl)amino)-N-trideuteromethylnicotinamide]: the IC50 in assay [1] amounted to 4.4 nM; in assay [2] (setting [4]), 8.63 nM.

Consider `[2H]C([2H])([2H])NC(=O)c1cnc(Nc2cc(CO)ccn2)cc1Nc1cccc(-c2csc(C)n2)c1OC` [Example 405], for which the IC50 in assay [1] is 20 nM; in assay [2] (setting [4]), 10 nM.

For the compound `CNC(=O)c1cnc(Nc2ccc(N3CCOCC3)cn2)cc1Nc1cc(F)cc(F)c1OC` [Example 406], the figures for the IC50 in assay [1] and in assay [2] (setting [4]) were 250 nM and 100 nM, respectively.

For `CNC(=O)c1cnc(Nc2ccn(C)n2)cc1Nc1cc(F)cc(F)c1OC` [Example 407], the IC50 in assay [1] and in assay [2] (setting [4]) was 90 nM each time.

`CNC(=O)c1cnc(Nc2ccn(C(C)C)n2)cc1Nc1cc(F)cc(F)c1OC` [Example 408]: the results for the IC50 in assay [1] and in assay [2] (setting [4]) were 680 nM and 430 nM, respectively.

As to `CNC(=O)c1cnc(Nc2cc(C)nc(C)n2)cc1Nc1cccc(F)c1OC` [Example 410], the values for the IC50 in assay [1] and in assay [2] (setting [4]) were 20 nM and 8.61 nM, respectively.

As for `CNC(=O)c1cnc(Nc2cc(C)c(F)cn2)cc1Nc1ccc(C(=O)N2CCCC2)cc1S(C)(=O)=O` [Example 411], the IC50 came out at 370 nM in assay [1] and 210 nM in assay [2] (setting [4]).

Turning to `CNC(=O)c1cnc(Nc2cc(C)c(F)cn2)cc1Nc1ccc(C(=O)N(C)C)cc1S(C)(=O)=O` [Example 412], the results for the IC50 in assay [1] and in assay [2] (setting [4]) were 450 nM and 240 nM, respectively.

With `CNC(=O)c1cnc(Nc2cc(C)c(F)cn2)cc1Nc1ccc(C(=O)N2CC(F)(F)C2)cc1S(C)(=O)=O` [Example 413], the results for the IC50 in assay [1] and in assay [2] (setting [4]) were 470 nM and 460 nM, respectively.

Consider `CNC(=O)c1cnc(Nc2ccc(C)nn2)cc1Nc1ccccc1S(C)(=O)=O` [Example 414], for which the IC50 in assay [1] was 650 nM; in assay [2] (setting [4]), 280 nM.

As to `CNC(=O)c1cnc(Nc2cc(C)c(C)nn2)cc1Nc1ccccc1S(C)(=O)=O` [Example 415], the IC50 came out at 320 nM in assay [1] and 210 nM in assay [2] (setting [4]).

In the case of `CNC(=O)c1cnc(Nc2cnc(C)c(C)n2)cc1Nc1ccccc1S(C)(=O)=O` [Example 416], the IC50 in assay [1] stood at 90 nM; in assay [2] (setting [4]), 80 nM.

`CNC(=O)c1cnc(Nc2ccc3cnccc3n2)cc1Nc1ccccc1S(C)(=O)=O` [Example 417]: the IC50 came out at 260 nM in assay [1] and 330 nM in assay [2] (setting [4]).

`CNC(=O)c1cnc(Nc2cc(COC)nc(C)n2)cc1Nc1ccccc1S(C)(=O)=O` [Example 418]: the IC50 came out at 350 nM in assay [1] and 210 nM in assay [2] (setting [4]).

For `CNC(=O)c1cnc(Nc2cc(OC)ncn2)cc1Nc1ccccc1S(C)(=O)=O` [Example 419], the IC50 was 170 nM in assay [1] and 350 nM in assay [2] (setting [4]).

Take `CNC(=O)c1cnc(Nc2cc(C(C)(C)C)ncn2)cc1Nc1ccccc1S(C)(=O)=O` [Example 421]: the IC50 in assay [1] amounted to 460 nM; in assay [2] (setting [4]) it was 480 nM.

Turning to `CCN(CC)CCCNc1cc(Nc2cc(Nc3ccccc3S(C)(=O)=O)c(C(=O)NC)cn2)nc(C)n1` [Example 423], the IC50 in assay [1] was determined as 380 nM; in assay [2] (setting [4]), 370 nM.

On to `CNC(=O)c1cnc(Nc2cc(NCc3ccccc3)ncn2)cc1Nc1ccccc1S(C)(=O)=O` [Example 424], for which the IC50 worked out at 490 nM in assay [1] and 460 nM in assay [2] (setting [4]).

Regarding `CNC(=O)c1cnc(Nc2cc(N(C)Cc3ccccc3)ncn2)cc1Nc1ccccc1S(C)(=O)=O` [Example 425], the figures for the IC50 in assay [1] and in assay [2] (setting [4]) were 670 nM and 380 nM, respectively.

Take `CNC(=O)c1cnc(Nc2cc(F)ccn2)cc1Nc1ccccc1NS(C)(=O)=O` [Example 427]: the IC50 in assay [1] was 140 nM; in assay [2] (setting [4]), 150 nM.

For the compound `CNC(=O)c1cnc(Nc2ccccn2)cc1Nc1ccccc1NS(C)(=O)=O` [Example 428], the IC50 in assay [1] amounted to 90 nM; in assay [2] (setting [4]), 110 nM.

In the case of `CNC(=O)c1cnc(Nc2ccc(F)cn2)cc1Nc1ccccc1S(N)(=O)=O` [Example 429], the figures for the IC50 in assay [1] and in assay [2] (setting [4]) were 250 nM and 150 nM, respectively.

Turning to `CNC(=O)c1cnc(Nc2ccccn2)cc1Nc1ccccc1S(N)(=O)=O` [Example 430], the IC50 in assay [1] came to 160 nM; in assay [2] (setting [4]), 50 nM.

Take `CNC(=O)c1cnc(Nc2cc(C)c(F)cn2)cc1Nc1ccccc1S(N)(=O)=O` [Example 431]: the IC50 was determined as 40 nM in assay [1] and 80 nM in assay [2] (setting [4]).

Consider `CNC(=O)c1cnc(Nc2cc(C)c(F)cn2)cc1Nc1ccccc1S(C)(=O)=O` [Example 432], for which the IC50 in assay [1] was 30 nM; in assay [2] (setting [4]), 20 nM.

Take `CNC(=O)c1cnc(Nc2cnc(OC)cn2)cc1Nc1ccccc1S(C)(=O)=O` [Example 433]: the IC50 in assay [1] was found to be 290 nM; in assay [2] (setting [4]) it was 220 nM.

On to `CNC(=O)c1cnc(Nc2ccc(OC)cn2)cc1Nc1ccccc1S(C)(=O)=O` [Example 434], for which the results for the IC50 in assay [1] and in assay [2] (setting [4]) were 100 nM and 50 nM, respectively.

For `CNC(=O)c1cnc(Nc2ccc(N3CCCCC3)cn2)cc1Nc1ccccc1S(C)(=O)=O` [Example 435], the IC50 was 30 nM in assay [1] and 50 nM in assay [2] (setting [4]).

Turning to `CNC(=O)c1cnc(Nc2ccc(N3CCC(C)(O)CC3)cn2)cc1Nc1ccccc1S(C)(=O)=O` [Example 436], the IC50 is 240 nM in assay [1] and 120 nM in assay [2] (setting [4]).

In the case of `CNC(=O)c1cnc(Nc2ccn(C)n2)cc1Nc1ccccc1S(C)(=O)=O` [Example 437], the IC50 in assay [1] came out at 360 nM; in assay [2] (setting [4]) it was 190 nM.

As to `CNC(=O)c1cnc(Nc2cc(C)n(C)n2)cc1Nc1ccccc1S(C)(=O)=O` [Example 439], the values for the IC50 in assay [1] and in assay [2] (setting [4]) were 210 nM and 110 nM, respectively.

As for `CNC(=O)c1cnc(Nc2ccc(C#N)c(C)n2)cc1Nc1ccccc1S(C)(=O)=O` [Example 440], the figures for the IC50 in assay [1] and in assay [2] (setting [4]) were 250 nM and 260 nM, respectively.

With `CNC(=O)c1cnc(Nc2ccc(N3CCCC3=O)cn2)cc1Nc1ccccc1S(C)(=O)=O` [Example 441], the IC50 in assay [1] is 460 nM; in assay [2] (setting [4]), 240 nM.

On to `CNC(=O)c1cnc(Nc2ccn(C(C)C)n2)cc1Nc1ccccc1S(C)(=O)=O` [Example 442], for which the IC50 in assay [1] worked out at 450 nM; in assay [2] (setting [4]), 130 nM.

For the compound `CNC(=O)c1cnc(Nc2cc(C)cc(C)n2)cc1Nc1ccccc1S(C)(=O)=O` [Example 443], the figures for the IC50 in assay [1] and in assay [2] (setting [4]) were 50 nM and 20 nM, respectively.

Regarding `CCOc1ccc(Nc2cc(Nc3ccccc3S(C)(=O)=O)c(C(=O)NC)cn2)nn1` [Example 444], the IC50 in assay [1] is 250 nM; in assay [2] (setting [4]) it was 180 nM.

As for `CNC(=O)c1cnc(Nc2cc(C3CCC3)[nH]n2)cc1Nc1ccccc1S(C)(=O)=O` [Example 445], the values for the IC50 in assay [1] and in assay [2] (setting [4]) were 530 nM and 320 nM, respectively.

With `CNC(=O)c1cnc(Nc2ccn(-c3ccc(Cl)cc3)n2)cc1Nc1ccccc1S(C)(=O)=O` [Example 446], the results for the IC50 in assay [1] and in assay [2] (setting [4]) were 150 nM and 180 nM, respectively.

Regarding `CNC(=O)c1cnc(Nc2cc(C)c(C#N)cn2)cc1Nc1ccccc1S(C)(=O)=O` [Example 447], the values for the IC50 in assay [1] and in assay [2] (setting [4]) were 200 nM and 160 nM, respectively.
